The text below walks through data of patent US11077110B2, “Compositions and methods for treating and preventing metabolic disorders” (TUFTS MEDICAL CENTER, priority 2016, dated 2021).

One assay deals with WT-ADSCs. Nature of the assay: differentiation towards brown-like adipocytes in the presence of BAT inducers. Format: cell-based, mouse. The note with it: WT-ADSCs with BAT inducers; LEE011 10 μM, PD 0.1 μM; vs vehicle. The protocol:
(a, d) Representative images of Oil Red O staining of differentiated ADSCs from WT and K43M mice (a, 10×) or WT-ADSCs treated with CDK4/6 inhibitor LEE011 (10 μM) and PD (0.1 μM) (a, 10×) in the presence of BAT inducers. (b, e) Representative images of Oil Red O staining of differentiated ADSCs from WT and K43M mice (b, 40×) or WT-ADSCs treated with CDK4/6 inhibitor LEE011 10 μM and PD 0.1 μM (e, 40×) in the presence of BAT inducers. (c, f) Representative images of bright field images of differentiated ADSCs from iWAT of WT and K43M mice or WT-ADSCs treated with CDK4/6 inhibitor LEE011 (10 μM) and PD (0.1 μM) (f, 40×) in the presence of BAT inducers.
(a) Relative mRNA levels of BAT markers Ucp-1, Pgc-1α and Cidea in differentiated ADSCs in the presence of BAT inducers. […] (b) lysates from cells were analyzed by immunoblotting for expression of CDK6, UCP-1, PGC-1α, and RUNX1. […]
Cellular differentiation entails the coordination of cell cycle arrest and tissue-specific gene expression. […] Accumulation of lipid-containing cells was detected by Oil red O staining as described (Hansen, J. B., et al. J Biol Chem 274, 2386-2393, 1999) (FIG. 11 a-b) and the characteristic feature of multilocular beige cells were also visualized under light microscopy (FIG. 11c). […]

The next assay relates to WT-ADSCs cells. As to the kind of experiment: anti-proliferation efficacy and cell cycle of CDK4/6 inhibitors against primary adipose derived stem cells. Format: cell-based, mouse. The note with it: WT-ADSCs treated 6 days, PD 0.1 μM or LEE 10 μM, vs DMSO or vehicle; for frequency of proliferating cells (S-G2-M) / frequency of quiescence cells (G1): flow cytometric cell cycle profile; for total cell numbers: initial plating 5×10^5 cells. As for the experimental part: (a, d) representative flow cytometric cell cycle profiles of WT-ADSCs cells treated with either PD (0.1 μM) or LEE (10 μM) for 6 days. (b, e) histograms summarizing the cell cycle distribution of the cells in A and D. Data shown are mean±s.d. (n=6); *P<0.05 vs DMSO or V, t-test. (c, f) Histograms summarizing the total cell numbers in WT-ADSCs cells treated with DMSO or PD (0.1 μM) for 6 days (c), or WT-ADSCs cells treated with vehicle (0.5% methycellulose) or LEE for 6 days (F). Data shown are mean±s.d. (n=6); *P<0.05 vs DMSO or V, t-test. The initial plating cells were 5×10^5.
To accomplish this, the anti-proliferation efficacy of CDK4/6 inhibitors against primary adipose derived stem cells (ADSCs) from the stromal vascular fraction (SVF) of WT adipose tissue (WT-ADSCs) we assessed. WT-ADSCs were treated with two known commercial available CDK4/6 inhibitors PD0332991 (PD) and LEE011 (LEE), two clinically relevant small molecule inhibitors of CDK4 and CDK6 kinases (Rader, J., et al. Clin Cancer Res 19, 6173-6182, 2013); Fry, D. W., et al. Mol Cancer Ther 3, 1427-1438, 2004; Pikman, Y., et al. Clin Cancer Res 23, 1012-1024, 2017) for 6 days with commonly used relevant effective doses (Fry, D. W., et al. Mol Cancer Ther 3, 1427-1438, 2004; Pikman, Y., et al. Clin Cancer Res 23, 1012-1024, 2017).
A general note: Flow cytometry measures light scatter and fluorescence of single cells or particles in a stream.

Regarding `CN(C)C(=O)c1cc2cnc(Nc3ccc(N4CCNCC4)cn3)nc2n1C1CCCC1` [LEE011, Ribociclib], the brown-like adipocyte differentiation entry with WT-ADSCs is “can induce brown-like adipocytes in vitro”. Further, in the assay with WT-ADSCs cells, the “frequency of proliferating cells (S-G2-M)” value is “dramatic reduction”, the “frequency of quiescence cells (G1)” value is on record as “increased frequency” and the total cell numbers entry is “successfully reduced”.
On to `CC(=O)c1c(C)c2cnc(Nc3ccc(N4CCNCC4)cn3)nc2n(C2CCCC2)c1=O` [PD0332991, palbociclib], for which the brown-like adipocyte differentiation entry in the assay on WT-ADSCs is recorded as “can induce brown-like adipocytes in vitro”. Further, in the assay on WT-ADSCs cells, the “frequency of proliferating cells (S-G2-M)” value was “dramatic reduction”, the “frequency of quiescence cells (G1)” value is “increased frequency” and the total cell numbers result is “successfully reduced”.
